The values that follow come from patent US20110178064A1, “SPIRO CONDENSED […] DERIVATIVES FOR USE AS ANTIBACTERIAL” (A[…]&D, priority 2007, published 2011).

In the first assay the target is Escherichia coli DNA gyrase A/B tetramer (Escherichia coli, UniProt P0AES4+P0AES6). Description: DNA gyrase supercoiling activity fluorescence polarisation assay. It counts as biochemical.
Chain of Escherichia coli DNA gyrase A/B tetramer (P0AES4 whole entry, one chain of several): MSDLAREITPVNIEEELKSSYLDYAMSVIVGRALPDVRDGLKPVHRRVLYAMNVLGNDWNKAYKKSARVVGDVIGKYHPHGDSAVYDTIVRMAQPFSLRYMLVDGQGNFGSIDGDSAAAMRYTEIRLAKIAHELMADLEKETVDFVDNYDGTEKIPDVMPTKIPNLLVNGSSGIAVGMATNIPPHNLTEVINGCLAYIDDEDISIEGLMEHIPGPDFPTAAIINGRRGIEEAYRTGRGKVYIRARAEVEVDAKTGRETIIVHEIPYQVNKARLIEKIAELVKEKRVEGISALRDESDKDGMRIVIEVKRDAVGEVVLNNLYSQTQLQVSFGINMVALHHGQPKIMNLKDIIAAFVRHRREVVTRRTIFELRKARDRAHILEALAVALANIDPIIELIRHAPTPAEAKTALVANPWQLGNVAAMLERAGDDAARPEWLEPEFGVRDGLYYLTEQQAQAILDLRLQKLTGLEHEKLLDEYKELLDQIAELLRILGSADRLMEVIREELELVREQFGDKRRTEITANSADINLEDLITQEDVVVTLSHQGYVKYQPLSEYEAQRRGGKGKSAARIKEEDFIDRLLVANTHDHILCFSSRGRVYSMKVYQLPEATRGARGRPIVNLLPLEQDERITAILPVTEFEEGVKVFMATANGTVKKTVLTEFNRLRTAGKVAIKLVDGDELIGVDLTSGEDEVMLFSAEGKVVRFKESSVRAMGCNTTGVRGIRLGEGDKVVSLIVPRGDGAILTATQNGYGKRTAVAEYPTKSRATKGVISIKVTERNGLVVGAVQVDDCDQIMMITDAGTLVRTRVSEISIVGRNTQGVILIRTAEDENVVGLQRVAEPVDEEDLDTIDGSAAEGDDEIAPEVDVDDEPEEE
Conditions: not given
An outline of the steps:
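Gyrase supercoiling reactions quenched with 40 nM 5′-BODIPY-FL oligodeoxynucleotide triplex probe in pH 3.5 NaCl/sodium acetate buffer; fluorescence anisotropy read after 60 min (485/535 nm).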
A general note: In fluorescence polarisation assays a small probe gives low polarisation when free and higher when bound to something large.
The term IC50 denotes the midpoint of a concentration-inhibition curve. As for `Cc1noc(C)c1-c1ccc2c(n1)CC1(C(=O)NC(=O)NC1=O)[C@H]1[C@H](C)O[C@H](C)CN21` (relative stereo) [Example 77, (2R,4S,4aS)-rel-8-(3,5-Dimethylisoxazol-4-yl)-2,4-dimethyl-1,2,4,4a-tetrahydro-2′H,6H-spiro[1,4-oxazino[4,3-a][1,5]naphthyridine-5,5′-pyrimidine]-2′,4′,6′(1′H,3′H)-trione], the IC50 was 8 µM. On to `C[C@@H]1CN2c3cnc(-c4cccc5cccnc45)cc3CC3(C(=O)NC(=O)NC3=O)[C@H]2[C@H](C)O1` (relative stereo) [Example 62, (6aS,7S,9R)-rel-7,9-Dimethyl-3-(quinolin-8-yl)-6a,7,9,10-tetrahydro-2′H,5H-spiro[1,4-oxazino[4,3-a][1,7]naphthyridine-6,5′-pyrimidine]-2′,4′,6′(1′H,3′H)-trione], for which the 50% inhibitory concentration (IC50) worked out at 8 µM. On the same count and under the same terms, under `CC1C[C@@H](C)[C@H]2N(C1)c1ncc(Br)cc1CC21C(=O)NC(=O)NC1=O` (stereo partly drawn) [Example 11, (6aR,7R)-3-Bromo-7,9-dimethyl-5,6a,7,8,9,10-hexahydro-1′H-spiro[pyrido[1,2-a][1,8]naphthyridine-6,5′-pyrimidine]-2′,4′,6′(3′H)-trione] stands 30 µM. On the same count and under the same terms, in the case of `C[C@@H]1CN2c3ncc(-c4nccn4C)cc3CC3(C(=O)NC(=O)NC3=O)[C@H]2[C@H](C)O1` (racemic) [Example 32, (6aS,7S,9R)-rel-7,9-Dimethyl-3-(1-methyl-1H-imidazol-2-yl)-6a., 7,9,10-tetrahydro-2′H,5H-spiro[1,4-oxazino[4,3-a][1,8]naphthyridine-6,5′-pyrimidine]-2′,4′,6′(1′H,3′H)-trione] it was 24 µM; in that of `C[C@@H]1CN2c3cnc(-c4ccn[nH]4)cc3CC3(C(=O)NC(=O)NC3=O)[C@H]2[C@H](C)O1` (relative stereo) [Example 118, (6aS,7S,9R)-rel-7,9-Dimethyl-3-(1H-pyrazol-5-yl)-6a,7,9,10-tetrahydro-2′H,5H-spiro[1,4-oxazino[4,3-a][1,7]naphthyridine-6,5′-pyrimidine]-2′,4′,6′(1′H,3′H)-trione], 19 µM.

In turn, `C[C@@H]1CN2c3cnc(-c4cscn4)cc3CC3(C(=O)NC(=O)NC3=O)[C@H]2[C@H](C)O1` (relative stereo) [Example 102, (6aS,7S,9R)-rel-7,9-Dimethyl-3-(1,3-thiazol-4-yl)-6a,7,9,10-tetrahydro-2′H,5H-spiro[1,4-oxazino[4,3-a][1,7]naphthyridine-6,5′-pyrimidine]-2′,4′,6′(1′H,3′H)-trione] gave a half-maximal inhibitory concentration (IC50) of 16 µM. Same read-out and setting: in the case of `C[C@@H]1CN2c3ncc(-c4ccc(-c5nnn[nH]5)s4)cc3CC3(C(=O)NC(=O)NC3=O)[C@H]2[C@H](C)O1` (relative stereo) [Example 31, (6aS,7S,9R)-rel-7,9-Dimethyl-3-[5-(1H-tetrazol-5-yl)thiophen-2-yl]-6a,7,9,10-tetrahydro-2′H,5H-spiro[1,4-oxazino[4,3-a][1,8]naphthyridine-6,5′-pyrimidine]-2′,4′,6′(1′H,3′H)-trione] it was 6 µM; in that of `C[C@@H]1CN2c3cnc(-c4cc5ccccc5o4)cc3CC3(C(=O)NC(=O)NC3=O)[C@H]2[C@H](C)O1` (racemic) [Example 53, (6aS,7S,9R)-rel-3-(1-Benzofuran-2-yl)-7,9-dimethyl-6a,7,9,10-tetrahydro-2′H,5H-spiro[1,4-oxazino[4,3-a][1,7]napthyridine-6,5′-pyrimidine]2′,4′,6′(1′H,3′H)-trione], 16 µM. Still for that read-out and setting: in the case of `C[C@@H]1CN2c3ccc(-c4cncnc4)nc3CC3(C(=O)NC(=O)NC3=O)[C@H]2[C@H](C)O1` (relative stereo) [Example 73, (2R,4S,4aS)-rel-2,4-Dimethyl-8-(pyrimidin-5-yl)-1,2,4,4a-tetrahydro-2′H,6H-spiro[1,4-oxazino[4,3-a][1,5]naphthyridine-5,5′-pyrimidine]-2′,4′,6′(1′H,3′H)-trione] it was 3 µM; in that of `C[C@@H]1CN2c3ncc(-c4cncn4C)cc3CC3(C(=O)NC(=O)NC3=O)[C@H]2[C@H](C)O1` (relative stereo) [Example 90, (6aS,7S,9R)-rel-7,9-Dimethyl-3-(1-methyl-1H-imidazol-5-yl)-6a,7,9,10-tetrahydro-2′H,5H-spiro[1,4-oxazino[4,3-a][1,8]naphthyridine-6,5′-pyrimidine]-2′,4′,6′(1′H,3′H)-trione], 21 µM. The same measure, in the same setting: in the case of `C[C@@H]1CN2c3ncc(-c4cc5ccccc5s4)cc3CC3(C(=O)NC(=O)NC3=O)[C@H]2[C@H](C)O1` (relative stereo) [Example 28, (6aS,7S,9R)-rel-3-(1-Benzothiophen-2-yl)-7,9-dimethyl-6a,7,9,10-tetrahydro-2′H,5H-spiro[1,4-oxazino[4,3-a][1,8]naphthyridine-6,5′-pyrimidine]-2′,4′,6′(1′H,3′H)-trione] it was 2 µM. As to `C[C@@H]1CN2c3ncc(-c4cncs4)cc3CC3(C(=O)NC(=O)NC3=O)[C@H]2[C@H](C)O1` (relative stereo) [Example 26, (6aS,7S,9R)-rel-7,9-Dimethyl-3-(1,3-thiazol-5-yl)-6a,7,9,10-tetrahydro-2′H,5H-spiro[1,4-oxazino[4,3-a][1,8]naphthyridine-6,5′-pyrimidine]-2′,4′,6′(1′H,3′H)-trione], the 50% inhibitory concentration (IC50) worked out at 4 µM. The same measure, in the same setting: under `Cc1nc(C)c(-c2ccc3c(n2)CC2(C(=O)NC(=O)NC2=O)[C@H]2[C@H](C)O[C@H](C)CN32)s1` (relative stereo) [Example 109, (2R,4S,4aS)-rel-8-(2,4-Dimethyl-1,3-thiazol-5-yl)-2,4-dimethyl-1,2,4,4a-tetrahydro-2′H,6H-spiro[1,4-oxazino[4,3-a][1,5]naphthyridine-5,5′-pyrimidine]-2′,4′,6′(1′H,3′H)-trione] stands 14 µM; under `C[C@H]1CN2c3ncc(-c4nnn(C)n4)cc3CC3(C(=O)NC(=O)NC3=O)[C@@H]2[C@@H](C)O1` (relative stereo) [Example 120(a), (6aR,7R,9S)-rel-7,9-Dimethyl-3-(2-methyl-2H-tetrazol-5-yl)-6a,7,9,10-tetrahydro-2′H,5H-spiro[1,4-oxazino[4,3-a][1,8]naphthyridine-6,5′-pyrimidine]-2′,4′,6′(1′H,3′H)-trione], 12 µM; under `C[C@@H]1CN2c3ncc(-c4ncc[nH]4)cc3CC3(C(=O)NC(=O)NC3=O)[C@H]2[C@H](C)O1` (relative stereo) [Example 35, (6aS,7S,9R)-rel-3-(1H-Imidazol-2-yl)-7,9-dimethyl-6a,7,9,10-tetrahydro-2′H,5H-spiro[1,4-oxazino[4,3-a][1,8]naphthyridine-6,5′-pyrimidine]-2′,4′,6′(1′H,3′H)-trione], over 40 µM. Same read-out and setting: in the case of `C[C@@H]1CN2c3ccc(-c4cc5ccccc5o4)nc3CC3(C(=O)NC(=O)NC3=O)[C@H]2[C@H](C)O1` (relative stereo) [Example 68, (2R,4S,4aS)-rel-8-(1-Benzofuran-2-yl)-2,4-dimethyl-1,2,4,4a-tetrahydro-2′H,6H-spiro[1,4-oxazino[4,3-a][1,5]naphthyridine-5,5′-pyrimidine]-2′,4′,6′(1′H,3′H)-trione] it was 8 µM.

The assay is the same for the next values; noted with them: E. coli DNA gyrase supercoiling; asterisk: no IC50 obtained at or below the indicated concentration; read-out: IC50.
Turning to `CC1CN2c3ncc(-c4nccs4)cc3CC3(C(=O)NC(=O)NC3=O)C2C(C)O1` [Example 25, (6aS,7S,9R)-rel-7,9-Dimethyl-3-(1,3-thiazol-2-yl)-6a., 7,9,10-tetrahydro-2′H,5H-spiro[1,4-oxazino[4,3-a][1,8]naphthyridine-6,5′-pyrimidine]-2′,4′,6′(1′H,3′H)-trione], the 50% inhibitory concentration (IC50) was 9 µM.
